Test results from patent publication US9510592B2, “Pesticidal compositions and processes related thereto” (Dow AgroSciences LLC, priority 2012, dated 2016).
Read-outs that look alike come from different tables or passages of the source.

Assays:
Format in all cases: in vivo
[1] = tested on: Beet Armyworm (Spodoptera exigua); assay: Bioassay on Beet Armyworm (BAW), 128-well diet tray assay; settings: percent mortality of second instar larvae, 50 μg/cm^2 on artificial diet, five to seven days, 25° C.; for pest or weed control at 50 µg/cm2, 50 µg/cm2: Spodoptera exigua, 168 h, read-out: BAW Rating
How it was run: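 Second-instar larvae (one to five per well) were placed on artificial diet surface-treated with 50 μg/cm^2 compound in acetone-water and held at 25 °C, 14:10 light-dark, for five to seven days. Percent mortality was averaged over eight wells.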

[2] = tested on: Cabbage Looper (Trichoplusia ni); assay: Bioassay on Cabbage Looper (CL), 128-well diet tray assay; settings: percent mortality of second instar larvae, 50 μg/cm^2 on artificial diet, five to seven days, 25° C.; Table 3A
Protocol: (§1) Certain molecules disclosed in this document were tested against BAW and CEW and CL using procedures described in the following examples. In the reporting of the results, the “BAW & CEW & CL Rating Table” was used (See Table Section).
Bioassays on CL (Trichoplusia ni)
Bioassays on CL were conducted using a 128-well diet tray assay. One to five second instar CL larvae were placed in each well (3 mL) of the diet tray that had been previously filled with 1 mL of artificial diet to which 50 μg/cm^2 of the test compound (dissolved in […] of 90:10 acetone-water mixture) had been applied (to each of eight wells) and then allowed to dry. Trays were covered with a clear self-adhesive cover, and held at 25° C., 14:10 light-dark for five to seven days. Percent mortality was recorded for the larvae in each well; activity in the eight wells was then averaged. The results are indicated in the table entitled “Table 3A: Assay Results” (See Table Section).

[3] = tested on: Corn Earworm (Helicoverpa zea); assay: Bioassay on Corn Earworm (CEW), 128-well diet tray assay; settings: percent mortality of second instar larvae, 50 μg/cm^2 on artificial diet, five to seven days, 25° C., Table 3; for pest or weed control at 50 µg/cm2: Helicoverpa zea, 168 h, read-out: CEW Rating
Protocol: as §1
Bioassays On CEW (Helicoverpa zea)
Bioassays on CEW were conducted using a 128-well diet tray assay. one to five second instar CEW larvae were placed in each well (3 mL) of the diet tray that had been previously filled with 1 mL of artificial diet to which 50 μg/cm^2 of the test compound (dissolved in 50 μL of 90:10 acetone-water mixture) had been applied (to each of eight wells) and then allowed to dry. Trays were covered with a clear self-adhesive cover, and held at 25° C., 14:10 light-dark for five to seven days. Percent mortality was recorded for the larvae in each well; activity in the eight wells was then averaged. The results are indicated in the table entitled “Table 3: Assay Results” (See Table Section).

[4] = tested on: Green Peach Aphid (Myzus persicae); assay: Bioassay on Green Peach Aphid (GPA), foliar spray on cabbage seedlings; settings: 72 h, corrected % control (Abbott), 200 ppm spray on cabbage seedlings, three days, Table 3, read-out: GPA Rating
Protocol: Certain molecules disclosed in this document were tested against GPA using procedures described in the following example. In the reporting of the results, the “GPA Rating Table” was used (See Table Section). Cabbage seedlings grown in 3-inch pots, with 2-3 small (3-5 cm) true leaves, were used as test substrate. The seedlings were infested with 20-50 GPA (wingless adult and nymph stages) one day prior to chemical application. Four pots with individual seedlings were used for each treatment. Test compounds (2 mg) were dissolved in 2 mL of acetone/MeOH (1:1) solvent, forming stock solutions of 1000 ppm test compound. The stock solutions were diluted 5× with 0.025% Tween 20 in water to obtain the solution at 200 ppm test compound. A hand-held aspirator-type sprayer was used for spraying a solution to both sides of […] leaves until runoff. Reference plants (solvent check) were sprayed with the diluent only containing 20% by volume of acetone/MeOH (1:1) solvent. Treated plants were held in a holding room for three days at approximately 25° C. and ambient relative humidity (RH) prior to grading. Evaluation was conducted by counting the number of live aphids per plant under a microscope. Percent Control was measured by using Abbott's correction formula (W. S. Abbott, “A Method of Computing the Effectiveness of an Insecticide” J. Econ. Entomol. 18 (1925), pp. 265-267) as follows. Corrected % Control=100*(X−Y)/X • where • X=No. of live aphids on solvent check plants and • Y=No. of live aphids on treated plants The results are indicated in the table entitled “Table 3: Assay Results” (See Table Section).

Compound | pest or weed control at 50 µg/cm2, 50 µg/cm2 ([1]; Table 3) | pest or weed control at 50 µg/cm2 [3] | also measured
CCC(=O)NNC(=O)c1ccc(/C=C/C(c2cc(Cl)c(Cl)c(Cl)c2)C(F)(F)F)cc1Br (stereo not shown) [Compound F8] | – | – | pest or weed control at 50 µg/cm2, 50 µg/cm2 ([1]; Table 3A): 50 to 100%; CL Rating [2]: A (50-100)
CCNC(=S)NC1CCc2cc(/C=C/C(c3cc(Cl)c(Cl)c(Cl)c3)C(F)(F)F)ccc21 (stereo not shown) [BC2] | 50 to 100% | 50 to 100% | –
O=C(NCc1ccc(Cl)nc1)c1ccc(/C=C/C(c2cc(Cl)cc(Cl)c2)C(F)(F)F)cc1Br (stereo not shown) [AC46] | 50 to 100% | 50 to 100% | –
FC(F)(F)C(/C=C/c1ccc(-n2cncn2)cc1)c1ccc(Cl)cc1Cl (stereo not shown) [DC13] | 50 to 100% | 50 to 100% | –
O=C(CC(F)(F)F)NC1CCc2cc(/C=C/C(c3cc(Cl)c(Cl)c(Cl)c3)C(F)(F)F)ccc21 (stereo not shown) [BC4, (E)-3,3,3-Trifluoro-N-(5-(4,4,4-trifluoro-3-(3,4,5-trichlorophenyl)but-1-enyl)-2,3-dihydro-1H-inden-1-yl)propanamide] | 50 to 100% | 50 to 100% | pest or weed control at 200 ppm [4]: 0 to 80%
Cc1cc(/C=C/C(c2cc(Cl)cc(Cl)c2)C(F)(F)F)ccc1C(=O)NCc1cccnc1 (stereo not shown) [AC14] | 50 to 100% | 0 to 50% | –
N#Cc1cc(/C=C/C(c2ccc(Cl)c(Cl)c2)C(F)(F)F)ccc1-n1cncn1 (stereo not shown) [DC28] | 50 to 100% | 50 to 100% | pest or weed control at 200 ppm [4]: 0 to 80%
Cc1cc(/C=C/C(c2cc(Cl)cc(Cl)c2)C(F)(F)F)ccc1C(=O)NC(C)c1ccc(Cl)nc1 (stereo not shown) [AC44] | 50 to 100% | 50 to 100% | pest or weed control at 200 ppm [4]: 0 to 80%
N#Cc1cc(/C=C/C(c2cc(Cl)cc(Cl)c2)C(F)(F)F)ccc1-n1cncn1 (stereo not shown) [DC29] | 50 to 100% | 50 to 100% | –
O=C(NCc1ccc(/C=C/C(c2cc(Cl)c(Cl)c(Cl)c2)C(F)(F)F)cc1)c1ccnc(Cl)c1 (stereo not shown) [CC13] | 50 to 100% | 50 to 100% | pest or weed control at 200 ppm [4]: 0 to 80%
FC(F)(F)C(/C=C/c1ccc(-n2cncn2)cc1)c1cc(Cl)c(Cl)c(Cl)c1 (stereo not shown) [DC18] | 50 to 100% | 50 to 100% | –
Cc1cc(/C=C/C(c2cc(Cl)cc(Cl)c2)C(F)(F)F)cnc1C(=O)NCc1ccc(Cl)nc1 (stereo not shown) [AC60] | 50 to 100% | 50 to 100% | pest or weed control at 200 ppm [4]: 0 to 80%
FC(F)(F)c1cc(Cl)cc(C(/C=C/c2ccc(-n3cncn3)cc2)C(F)(F)F)c1 (stereo not shown) [DC19] | 50 to 100% | 50 to 100% | –
O=C(CC(F)(F)F)NCc1ccc(/C=C/C(c2cc(Cl)c(F)c(Cl)c2)C(F)(F)F)cc1 (stereo not shown) [CC16] | 50 to 100% | 50 to 100% | pest or weed control at 200 ppm [4]: 0 to 80%
Cc1cc(/C=C/C(c2cc(Cl)cc(Cl)c2)C(F)(F)F)ccc1C(=O)N[C@H]1C[S@@+]([O-])C1 (stereo partly shown) [AC82] | 50 to 100% | 50 to 100% | pest or weed control at 200 ppm [4]: 0 to 80%
FC(F)(F)C(/C=C/c1ccc(-n2cncn2)cc1)c1cc(Cl)cc(Cl)c1Cl (stereo not shown) [DC17] | 50 to 100% | 50 to 100% | –
Cc1cc(/C=C/C(c2cc(Cl)c(Cl)c(Cl)c2)C(F)(F)F)ccc1C(=O)NC1CS(=O)(=O)C1 (stereo not shown) [AC25] | 50 to 100% | 50 to 100% | –
CCC(=O)N(C)NC(=O)c1ccc(/C=C/C(c2cc(Cl)c(Cl)c(Cl)c2)C(F)(F)F)cc1Br (stereo not shown) [Compound F11, (E)-2-Bromo-N′-methyl-N′-propionyl-4-(4,4,4-trifluoro-3-(3,4,5-trichlorophenyl)but-1-en-1-yl)benzohydrazide] | – | – | pest or weed control at 50 µg/cm2, 50 µg/cm2 ([1]; Table 3A): 50 to 100%; CL Rating [2]: A (50-100)

Compound | pest or weed control at 50 µg/cm2, 50 µg/cm2 ([1]; Table 3) | pest or weed control at 50 µg/cm2 [3] | also measured
CN(C)NC(=O)CNC(=O)c1ccc(/C=C/C(c2cc(Cl)c(Cl)c(Cl)c2)C(F)(F)F)cc1Br (stereo not shown) [AC112] | 50 to 100% | 50 to 100% | –
O=C(CNC(=O)c1ccc(/C=C/C(c2cc(Cl)cc(Cl)c2)C(F)(F)F)cc1Cl)NCC(F)(F)F (stereo not shown) [AC57] | 50 to 100% | 50 to 100% | pest or weed control at 200 ppm [4]: 0 to 80%
N#Cc1cc(/C=C/C(c2cc(Cl)c(Cl)c(Cl)c2)C(F)(F)F)ccc1-n1cncn1 (stereo not shown) [DC31] | 50 to 100% | 50 to 100% | pest or weed control at 200 ppm [4]: 0 to 80%
CCc1cc(/C=C/C(c2cc(Cl)c(F)c(Cl)c2)C(F)(F)F)ccc1C(=O)NCc1cccnc1Cl (stereo not shown) [AC76] | 50 to 100% | 50 to 100% | –
O=C(CC(F)(F)F)NCc1ccc(/C=C/C(c2cc(Cl)c(Cl)c(Cl)c2)C(F)(F)F)cc1Cl (stereo not shown) [CC10] | 50 to 100% | 50 to 100% | pest or weed control at 200 ppm [4]: 0 to 80%
C=CCNC(=S)NC1CCc2cc(/C=C/C(c3cc(Cl)c(Cl)c(Cl)c3)C(F)(F)F)ccc21 (stereo not shown) [BC3] | 50 to 100% | 50 to 100% | –
O=C(NCc1ccc(/C=C/C(c2cc(Cl)c(Cl)c(Cl)c2)C(F)(F)F)cc1Cl)Oc1ccccc1Cl (stereo not shown) [CC40] | – | – | CEW Rating [3]: A (50-100)
O=C(NC1CCN(CC(F)(F)F)CC1)c1ccc(/C=C/C(c2cc(Cl)c(Cl)c(Cl)c2)C(F)(F)F)cc1Br (stereo not shown) [AC105, (E)-2-Bromo-4-(4,4,4-trifluoro-3-(3,4,5-trichlorophenyl)but-1-en-1-yl)-N-(1-(2,2,2-trifluoroethyl)piperidin-4-yl)benzamide] | 50 to 100% | 50 to 100% | –
N#Cc1cc(/C=C/C(c2cc(C(F)(F)F)cc(C(F)(F)F)c2)C(F)(F)F)ccc1-n1cncn1 (stereo not shown) [DC30] | 50 to 100% | 50 to 100% | –
Cc1cc(/C=C/C(c2cc(Cl)cc(Cl)c2)C(F)(F)F)ccc1C(=O)NCc1ccc(Cl)nc1 (stereo not shown) [AC7] | – | – | BAW Rating ([1]; Table 3): A (50-100)
CCC(=O)NCc1ccc(/C=C/C(c2cc(Cl)cc(Cl)c2)C(F)(F)F)cc1 (stereo not shown) [CC4] | – | – | BAW Rating ([1]; Table 3): A (50-100)
Cc1cc(/C=C/C(c2cc(Cl)cc(Cl)c2)C(F)(F)F)ccc1C(=O)NCC(=O)NC1CS(=O)(=O)C1 (stereo not shown) [AC81] | – | – | BAW Rating ([1]; Table 3): A (50-100)
O=C(NCc1ncc(/C=C/C(c2cc(Cl)c(Cl)c(Cl)c2)C(F)(F)F)cc1Cl)C1CC1 (stereo not shown) [CC45] | – | – | BAW Rating ([1]; Table 3): A (50-100)
O=C(CC(F)(F)F)NC1CCc2cc(/C=C/C(c3cc(Cl)c(F)c(Cl)c3)C(F)(F)F)ccc21 (stereo not shown) [BC8] | – | – | BAW Rating ([1]; Table 3): A (50-100)
Cc1cc(/C=C/C(c2cc(Cl)cc(Cl)c2)C(F)(F)F)ccc1C(=O)NCc1ccc(Cl)cc1 (stereo not shown) [AC48] | – | – | BAW Rating ([1]; Table 3): A (50-100)
FC(F)(F)c1cc(C(/C=C/c2ccc(-n3cncn3)cc2)C(F)(F)F)cc(C(F)(F)F)c1 (stereo not shown) [DC16] | – | – | BAW Rating ([1]; Table 3): A (50-100)
CNC(=S)NC1CCc2cc(/C=C/C(c3cc(Cl)c(Cl)c(Cl)c3)C(F)(F)F)ccc21 (stereo not shown) [BC1, (E)-1-Methyl-3-(5-(4,4,4-trifluoro-3-(3,4,5-trichlorophenyl)-but-1-enyl)-2,3-dihydro-1H-inden-1-yl)thiourea] | 50 to 100% | 50 to 100% | –
O=C(NC1CCc2cc(/C=C/C(c3cc(Cl)c(Cl)c(Cl)c3)C(F)(F)F)ccc21)C1CC1 (stereo not shown) [BC6] | – | – | BAW Rating ([1]; Table 3): A (50-100)
